Assay results taken from patent US7824698B2, “Lyophilized formulations of Salinosporamide A” (Nereus Pharmaceuticals, Inc., priority 2007, dated 2010).
≈ marks a conversion by molar mass, not a printed value.

How the values were obtained:
[1] = Salinosporamide A in-situ phase solubility and stability in H2O-TBA; format: physicochemical; details: for HPLC Assay (% Purity): room temp.
Procedure: Salinosporamide A in-situ phase solubility and stability were determined in 10, 20 and 30% H2O-TBA (v/v) solutions. Salinosporamide A was prepared at 2 mg/mL in TBA as a stock solution. HPLC water was spiked into the Salinosporamide A solution aliquot to make up the equivalent 10, 20 and 30% H2O-TBA solutions at room temperature. Each drug solution was mixed and immediately filtered. The filtrate was collected as time zero sample and analyzed by HPLC at real time to avoid drug degradation. The filtrate was subsequently sampled and filtered at 4, 24 and 48 hr to monitor drug stability at ambient room temperature.

[2] = Chemical stability of the API
[3] = Solubility and stability in tert-butanol and Kollidon-TBA vehicles by HPLC; format: physicochemical
Procedure: Salinosporamide A solubility was determined in 100% tert-butanol (TBA) and in TBA containing 3% (w/v) Kollidon 12 PF and 3% (w/v) Kollidon 17 PF, respectively. Both Kollidons can dissolve in TBA at approximately 4% (w/v). 3% Kollidon can serve as the bulking agent to support a lyophilization preparation. Salinosporamide A was added and saturated in the vehicles at ambient room temperature overnight. Salinosporamide A solutions were filtered and analyzed by HPLC to determine the solubility.

For C[C@@]12OC(=O)[C@]1([C@@H](O)[C@@H]1C=CCCC1)NC(=O)[C@@H]2CCCl [Salinosporamide A], the bulk solution stability ([1]; 1 mg/mL in 10-30% H2O-TBA co-solvent systems, room temperature) was “stable”, the “HPLC Assay (% Purity)” value ([1]; 10% H2O-TBA, 0 hr) was 100.0% and the “HPLC Assay (% Purity)” value ([1]; 10% H2O-TBA, 4 hr) was 99.5%. For the same compound, the “HPLC Assay (% Purity)” value ([1]; 10% H2O-TBA, 24 hr) was 99.8%, the “HPLC Assay (% Purity)” value ([1]; 10% H2O-TBA, 48 hr) was 99.7% and the “HPLC Assay (% Purity)” value ([1]; 20% H2O-TBA, 0 hr) was 100.0%. For the same compound, the “HPLC Assay (% Purity)” value ([1]; 20% H2O-TBA, 4 hr) was 99.8%, the “HPLC Assay (% Purity)” value ([1]; 20% H2O-TBA, 24 hr) was 99.8% and the “HPLC Assay (% Purity)” value ([1]; 20% H2O-TBA, 48 hr) was 99.7%. For the same compound, the “HPLC Assay (% Purity)” value ([1]; 30% H2O-TBA, 0 hr) was 100.0%, the “HPLC Assay (% Purity)” value ([1]; 30% H2O-TBA, 4 hr) was 99.8% and the “HPLC Assay (% Purity)” value ([1]; 30% H2O-TBA, 24 hr) was 99.5%. The “HPLC Assay (% Purity)” value ([1]; 30% H2O-TBA, 48 hr) was 99.3%, the “stability in aqueous solution” value ([2]; neutral and basic pH values) was “labile” and the “time API is stable” value ([2]; stored at −20° C. desiccated) was “at least 12 months”. The solubility ([3]; 3% Kollidon 12 PF-TBA) was 4900 µg/mL (≈ 15.6 mM), the stability in solution ([3]; 3% Kollidon 12 PF-TBA and 3% Kollidon 17 PF-TBA, room temperature overnight) was “stable” and the solubility ([3]; 3% Kollidon 17 PF-TBA) was 4200 µg/mL (≈ 13.4 mM). For the same compound, the solubility ([3]; 100% TBA, ambient room temperature) was 2000 µg/mL (≈ 6.37 mM) and the stability in solution ([3]; 100% TBA, ambient room temperature overnight) was “stable”.
